The target in the assay is Tyrosine-protein kinase BTK (Homo sapiens, UniProt Q06187). The assay is described as follows: BTK FRET Competitive Binding Assay. As to conditions: 30 °C. As to the method: The BTK time-resolved FRET-based competitive binding assay and cell-based BTK assays have been previously described.[Xu et al., J.Pharmacol. Exp. Ther., 341:90-103] For the BTK Omnia kinetic assay used in the mechanism of action experiments, assay reagents were prepared from the Omnia Y peptide 5 kit as follows: kinase reaction buffer was diluted to 1X in dH2O. A 10X substrate (100 μm) was prepared in dH20. ATP was prepared at 1 mM (10×) in dH2O, and 2 mM (10×) DTT was prepared in dH2O. A master mix of kinase buffer (10×), peptide (10×), and DTT (10×), all at 2 μL, and dH2O (4 μL) was prepared per well. Untagged BTK enzyme was run in a final concentration of 20 nM. Compounds at varying concentrations and ATP dilutions were prepared in 1V kinase buffer. Final compound DMSO concentration was 1.25 %. In a black non-binding plate (Corning 3676), enzyme (5 μL) was added to compound/ATP mix (5 μL). The plate was incubated for 20 min at 30 °C, then master mix (10 μL) was added into each well and mixed. The plate was incubated at 30 °C, and fluorescence intensity readings at λex=360 nm, λem=485 nm was collected at predetermined intervals on the Tecan M1000.
Tyrosine-protein kinase BTK, sequence (Q06187 whole entry): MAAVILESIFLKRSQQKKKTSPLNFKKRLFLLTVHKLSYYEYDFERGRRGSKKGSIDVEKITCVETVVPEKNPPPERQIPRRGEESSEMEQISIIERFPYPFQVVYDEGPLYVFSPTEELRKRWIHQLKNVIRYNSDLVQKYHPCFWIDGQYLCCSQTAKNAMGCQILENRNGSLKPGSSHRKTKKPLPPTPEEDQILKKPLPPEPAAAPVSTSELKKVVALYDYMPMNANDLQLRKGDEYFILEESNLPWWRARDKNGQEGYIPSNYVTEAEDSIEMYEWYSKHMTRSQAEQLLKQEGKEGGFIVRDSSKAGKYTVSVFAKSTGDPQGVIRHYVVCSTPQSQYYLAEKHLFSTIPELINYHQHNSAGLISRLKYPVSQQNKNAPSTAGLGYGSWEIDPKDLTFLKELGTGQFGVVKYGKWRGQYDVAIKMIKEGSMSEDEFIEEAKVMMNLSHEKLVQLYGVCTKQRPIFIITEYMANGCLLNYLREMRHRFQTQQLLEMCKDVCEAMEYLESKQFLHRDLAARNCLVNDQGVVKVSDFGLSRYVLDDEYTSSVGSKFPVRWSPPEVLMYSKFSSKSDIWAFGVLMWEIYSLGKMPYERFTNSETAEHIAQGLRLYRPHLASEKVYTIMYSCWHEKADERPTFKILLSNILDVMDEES
`CNC(=O)C(Cc1c[nH]c2ncccc12)NC(=O)c1n[nH]c2cccc(CNc3ccc(O)cc3Cl)c12` (stereo not drawn) [BTK inhibitor, 1] yielded an IC50 of 2500 nM. In turn, `CNC(=O)Cc1cccc(NC(=O)c2n[nH]cc2CNc2ccccc2[C@H](O)c2ccccc2)c1` [BTK inhibitor, 2] registered a concentration for half-maximal inhibition (IC50) of 210 nM. This IC50 lies about 12-fold lower than the previous one. Under `CNC(=O)[C@H]1Cc2c([nH]c3ccccc23)CN1C(=O)c1occc1CNc1ccc2nccnc2c1` [BTK inhibitor, 3] stands 0.55 nM.

By IC50 is commonly meant the concentration needed to halve the response being measured. Lower therefore signals inhibition by little substance.

These data come from BindingDB's records for doi:10.1002/cbic.201600573 (X-Chem Pharmaceuticals, 2017).
